# Where “and” joins values, the source holds several entries; their conditions need not be identical. Equal entries are not always repeated. Marks after values point to notes of the source that are not given here.
# Assays:
# Assay type in all cases: cell-based
# p62 = p62 degradation assay (p62/actin immunoblot); set-up: key: −: activity not reported; 0: decreased vs. WT; +: similar to WT; ++: modest increase vs. WT; +++: significant increase vs. WT; conditions: for Activity (μM) 10, p62/actin assay activity: 10 μM; for Activity (μM) 20, p62/actin assay activity: 20 μM; for Activity (μM) 30, p62/actin assay activity: 30 μM; for Activity (μM) 50, p62/actin assay activity: 50 μM; for Activity (μM) 100, p62/actin assay activity: 100 μM; for Activity (μM) 10, starred cell, p62/actin assay activity: Table 8, 10 μM marked * (footnote: data taken at 20 instead of 30 μM)
# LC3 = LC3 marker assay (LC3-I to LC3-II conversion immunoblot); set-up: key: −: activity not reported; 0: decreased vs. WT; +: similar to WT; ++: modest increase vs. WT; +++: significant increase vs. WT; conditions: for Activity (μM) 10, LC3 assay activity: 10 μM; for Activity (μM) 20, LC3 assay activity: 20 μM; for Activity (μM) 30, LC3 assay activity: 30 μM; for Activity (μM) 50, LC3 assay activity: 50 μM; for Activity (μM) 100, LC3 assay activity: 100 μM; for Activity (μM) 10, starred cell, LC3 assay activity: Table 8, 10 μM marked * (footnote: data taken at 20 instead of 30 μM)
# HeLa cells = test: Autophagy induction judged by p62 and LC3 immunoblots together; set-up: key to Activity compared to wild-type WT / Activity (μM) 10, single symbol / Activity (μM) 30, single symbol / Activity (μM) 50, single symbol / Activity (μM) 100, single symbol: −: activity not reported; 0: decreased vs. WT; +: similar to WT; ++: modest increase vs. WT; +++: significant increase vs. WT; conditions: for Activity (μM) 10, single symbol: 10 μM; for Activity (μM) 30, single symbol: 30 μM; for Activity (μM) 50, single symbol: 50 μM; for Activity (μM) 100, single symbol: 100 μM; for Activity compared to wild-type WT: Tat-linked linear peptides, summation of p62 degradation assay and LC3 marker assay
# Method: This 10-mer sequence was substituted with various thiol-containing amino acids at various positions, and then cross-linked with various linkers as described above (FIG. 5, a and FIG. 6).
# Cells were treated with peptide in OPTI-MEM (Thermo Scientific) acidified with 0.15% (v/v) 6N HCl for 3 hour. Cells were rinsed with Dulbecco's phosphate buffered saline (PBS) and lysed in lysis buffer (20 mM HEPES, 150 mM NaCl, 1 mM EDTA, 1% Triton X-100, protease inhibitor cocktail (Roche) on ice for 1 hour. Cell lysates were centrifuged at 16,000 g for 10 min at 4° C. and analyzed by SDS-PAGE and transferred to PVDF membranes. The membranes were blocked 5% non-fat dry milk (NFDM) in PBST (PBS+0.05% Tween-20) for 1 hour, then incubated overnight at 4° C. with primary antibody in 5% NFDM in PBST. The blots were washed with PBST and incubated with HRP-conjugated secondary antibodies diluted in 5% NFDM in PBST for 1 hour at room temperature. Membranes were washed with PBST and visualized with SuperSignal West Pico Chemiluminescent Substrate (Thermo Scientific). Semi-quantitative results were obtained by noting the lowest concentration at which both p62 degradation and LC3-I to LC3-II conversion were observed.
# (SEQ ID NO: 16)-Sequence. […] The N-terminus was capped with an acetyl group while the C terminus was capped with a —C(O)—NH2 group. The activity reported is a summation of results from both the p62 degradation assay and the LC3 marker assay.
# [1] = Table 3, control vehicle, first symbol of cell
# [2] = Table 4, control inactive Tat-Beclin mutant, first symbol
# [3] = Table 3, control vehicle, first symbol
# [4] = Table 8, control compound T25, first symbol
# [5] = Table 3, control vehicle, second symbol of cell
# [6] = Table 4, control inactive Tat-Beclin mutant, second symbol
# [7] = Table 3, control vehicle, second symbol
# [8] = Table 8, control compound T25, second symbol
# [9] = Table 4, starred rows (asterisk not explained)
# [10] = Table 5, control compound T25, first symbol
# [11] = Table 6, control DMSO, first symbol
# [12] = Table 5, control compound T25, second symbol
# [13] = Table 6, control DMSO, second symbol
sequence,measurement,setting,value
VCNACFHIWH [Compound 3],"Activity (μM) 10, p62/actin assay activity",p62; [1],0/0
same,"Activity (μM) 10, p62/actin assay activity",p62; [2],0
same,"Activity (μM) 20, p62/actin assay activity",p62; [3],+
same,"Activity (μM) 30, p62/actin assay activity",p62; [2],0
same,"Activity (μM) 30, p62/actin assay activity",p62; [4],0/0
same,"Activity (μM) 50, p62/actin assay activity",p62; [3],++
same,"Activity (μM) 50, p62/actin assay activity",p62; [2],0
same,"Activity (μM) 50, p62/actin assay activity",p62; [4],+ and +++/+++
same,"Activity (μM) 100, p62/actin assay activity",p62; [3],+++/+++
same,"Activity (μM) 100, p62/actin assay activity",p62; [2],0/0
same,"Activity (μM) 100, p62/actin assay activity",p62; [4],+++/+++
same,"Activity (μM) 10, starred cell, p62/actin assay activity",p62; first symbol,0/0*
same,"Activity (μM) 10, LC3 assay activity",LC3; [5],0/0
same,"Activity (μM) 10, LC3 assay activity",LC3; [6],++
same,"Activity (μM) 20, LC3 assay activity",LC3; [7],+++
same,"Activity (μM) 30, LC3 assay activity",LC3; [6],+++
same,"Activity (μM) 30, LC3 assay activity",LC3; [8],0/0
same,"Activity (μM) 50, LC3 assay activity",LC3; [7],+++
same,"Activity (μM) 50, LC3 assay activity",LC3; [6],+
same,"Activity (μM) 50, LC3 assay activity",LC3; [8],0 and +++/+++
same,"Activity (μM) 100, LC3 assay activity",LC3; [7],+++/+++
same,"Activity (μM) 100, LC3 assay activity",LC3; [6],0/0
same,"Activity (μM) 100, LC3 assay activity",LC3; [8],+++/+++
same,"Activity (μM) 10, starred cell, LC3 assay activity",LC3; second symbol,0/0*
same,"Activity (μM) 10, single symbol",HeLa cells; [9],0
same,"Activity (μM) 30, single symbol",HeLa cells; [9],0
same,"Activity (μM) 50, single symbol",HeLa cells; [9],0
same,"Activity (μM) 100, single symbol",HeLa cells; [9],0
VCNATCHIWH [Compound 1],"Activity (μM) 10, p62/actin assay activity",p62; [1],0/0
same,"Activity (μM) 10, p62/actin assay activity",p62; [2],0/0
same,"Activity (μM) 20, p62/actin assay activity",p62; [3],0/0
same,"Activity (μM) 30, p62/actin assay activity",p62; [2],0
same,"Activity (μM) 30, p62/actin assay activity",p62; [4],0/0 and ++
same,"Activity (μM) 50, p62/actin assay activity",p62; [3],0/0
same,"Activity (μM) 50, p62/actin assay activity",p62; [2],0
same,"Activity (μM) 50, p62/actin assay activity",p62; [4],0/0 and +++/+++
same,"Activity (μM) 100, p62/actin assay activity",p62; [3],+++
same,"Activity (μM) 100, p62/actin assay activity",p62; [2],0
same,"Activity (μM) 100, p62/actin assay activity",p62; [4],+++
same,"Activity (μM) 10, starred cell, p62/actin assay activity",p62; first symbol,0/0* and 0
same,"Activity (μM) 10, LC3 assay activity",LC3; [5],0/0
same,"Activity (μM) 10, LC3 assay activity",LC3; [6],0/0
same,"Activity (μM) 20, LC3 assay activity",LC3; [7],0/0
same,"Activity (μM) 30, LC3 assay activity",LC3; [6],+
same,"Activity (μM) 30, LC3 assay activity",LC3; [8],0/0 and +++
same,"Activity (μM) 50, LC3 assay activity",LC3; [7],0/0
same,"Activity (μM) 50, LC3 assay activity",LC3; [6],++
same,"Activity (μM) 50, LC3 assay activity",LC3; [8],0/0 and +++/+++
same,"Activity (μM) 100, LC3 assay activity",LC3; [7],+
same,"Activity (μM) 100, LC3 assay activity",LC3; [8],+
same,"Activity (μM) 10, starred cell, LC3 assay activity",LC3; second symbol,0/0* and +
same,"Activity (μM) 10, single symbol",HeLa cells; [9],0
same,"Activity (μM) 30, single symbol",HeLa cells; [9],0
same,"Activity (μM) 50, single symbol",HeLa cells; [9],0
same,"Activity (μM) 100, single symbol",HeLa cells; [9],0
VCNATCHIWH [Compound 15],"Activity (μM) 10, p62/actin assay activity",p62; [10],0/0
same,"Activity (μM) 10, p62/actin assay activity",p62; [11],++/++
same,"Activity (μM) 30, p62/actin assay activity",p62; [10],+/+
same,"Activity (μM) 30, p62/actin assay activity",p62; [11],+++
same,"Activity (μM) 50, p62/actin assay activity",p62; [10],++/++
same,"Activity (μM) 50, p62/actin assay activity",p62; [11],+++
same,"Activity (μM) 100, p62/actin assay activity",p62; [10],+++/+++
same,"Activity (μM) 100, p62/actin assay activity",p62; [11],+++
same,"Activity (μM) 10, LC3 assay activity",LC3; [12],0/0
same,"Activity (μM) 10, LC3 assay activity",LC3; [13],++/++
same,"Activity (μM) 30, LC3 assay activity",LC3; [12],+/+
same,"Activity (μM) 30, LC3 assay activity",LC3; [13],+
same,"Activity (μM) 50, LC3 assay activity",LC3; [12],++/++
same,"Activity (μM) 50, LC3 assay activity",LC3; [13],+
same,"Activity (μM) 100, LC3 assay activity",LC3; [12],+++/+++
same,"Activity (μM) 100, LC3 assay activity",LC3; [13],+
same,"Activity (μM) 10, single symbol",HeLa cells; Table 5,0
same,"Activity (μM) 30, single symbol",HeLa cells; Table 5,+
same,"Activity (μM) 50, single symbol",HeLa cells; Table 5,+++
same,"Activity (μM) 100, single symbol",HeLa cells; Table 5,+++
VCNATCHIWH [Compound 16],"Activity (μM) 10, p62/actin assay activity",p62; [10],0
same,"Activity (μM) 10, p62/actin assay activity",p62; [11],++
same,"Activity (μM) 30, p62/actin assay activity",p62; [10],0
same,"Activity (μM) 30, p62/actin assay activity",p62; [11],+++
same,"Activity (μM) 50, p62/actin assay activity",p62; [10],0
same,"Activity (μM) 50, p62/actin assay activity",p62; [11],+++
same,"Activity (μM) 100, p62/actin assay activity",p62; [10],0
same,"Activity (μM) 100, p62/actin assay activity",p62; [11],+++
same,"Activity (μM) 10, LC3 assay activity",LC3; [12],++
same,"Activity (μM) 10, LC3 assay activity",LC3; [13],+
same,"Activity (μM) 30, LC3 assay activity",LC3; [12],++
same,"Activity (μM) 30, LC3 assay activity",LC3; [13],+
same,"Activity (μM) 50, LC3 assay activity",LC3; [12],++
same,"Activity (μM) 50, LC3 assay activity",LC3; [13],+
same,"Activity (μM) 100, LC3 assay activity",LC3; [12],++
same,"Activity (μM) 100, LC3 assay activity",LC3; [13],+
same,"Activity (μM) 10, single symbol",HeLa cells; Table 5,0
same,"Activity (μM) 30, single symbol",HeLa cells; Table 5,+
same,"Activity (μM) 50, single symbol",HeLa cells; Table 5,++
same,"Activity (μM) 100, single symbol",HeLa cells; Table 5,++
"VFNATFEIWHE [Compound T11, Tat-linked linear peptide]",Activity compared to wild-type WT,HeLa cells,+
"VFNATFEIWYD [Compound T10, Tat-linked linear peptide]",Activity compared to wild-type WT,HeLa cells,+
"VFNATFELWHD [Compound T8, Tat-linked linear peptide]",Activity compared to wild-type WT,HeLa cells,++
"VFNATFEMWHD [Compound T16, Tat-linked linear peptide]",Activity compared to wild-type WT,HeLa cells,+
"VFNATFERWHD [Compound T20, Tat-linked linear peptide]",Activity compared to wild-type WT,HeLa cells,+
"VFNATFEVWHD [Compound T14, Tat-linked linear peptide]",Activity compared to wild-type WT,HeLa cells,+
"VFNATFEYWHD [Compound T19, Tat-linked linear peptide]",Activity compared to wild-type WT,HeLa cells,+
"VFNATWEIWHD [Compound T6, Tat-linked linear peptide]",Activity compared to wild-type WT,HeLa cells,0
"VLNATFEIWHD [Compound T15, Tat-linked linear peptide]",Activity compared to wild-type WT,HeLa cells,+
"VWAATFHIWHD [Compound T36, Tat-linked linear peptide]",Activity compared to wild-type WT,HeLa cells,+
"VWNAAFHIWHD [Compound T37, Tat-linked linear peptide]",Activity compared to wild-type WT,HeLa cells,++
"VWNATFAIWHD [Compound T39, Tat-linked linear peptide]",Activity compared to wild-type WT,HeLa cells,+++
"VWNATFEIWHD [Compound T2, Tat-linked linear peptide]",Activity compared to wild-type WT,HeLa cells,++
"VWNATFELWHD [Compound T12, Tat-linked linear peptide]",Activity compared to wild-type WT,HeLa cells,+
"VWNATFHIAHD [Compound T41, Tat-linked linear peptide]",Activity compared to wild-type WT,HeLa cells,+
"VWNATFHIWAD [Compound T42, Tat-linked linear peptide]",Activity compared to wild-type WT,HeLa cells,+++
"VWNATFHIWH [Compound T33, Tat-linked linear peptide]",Activity compared to wild-type WT,HeLa cells,+++
"VWNATFHIWHD [Compound T17, Tat-linked linear peptide]","Activity (μM) 10, single symbol","HeLa cells; Table 6, control DMSO, one symbol only",+
same,Activity compared to wild-type WT,HeLa cells,+++
"VWNATFHYWHD [Compound T26, Tat-linked linear peptide]",Activity compared to wild-type WT,HeLa cells,+++
"VYNATFEIWHD [Compound T13, Tat-linked linear peptide]",Activity compared to wild-type WT,HeLa cells,0
"WNATFHIW [Compound T35, Tat-linked linear peptide]",Activity compared to wild-type WT,HeLa cells,++
"WNATFHIWH [Compound T32, Tat-linked linear peptide]",Activity compared to wild-type WT,HeLa cells,++
"WNATFHIWHD [Compound T34, Tat-linked linear peptide]",Activity compared to wild-type WT,HeLa cells,+++
